Test [1] deals with Androgen receptor (Homo sapiens, UniProt P10275, T878A). The test is described as follows: Displacement of [3H]testosterone from human recombinant androgen receptor T877A mutant expressed in LNCaP cells. (In a radioligand displacement assay an active substance lowers the binding of a labelled ligand.)
For test [2], the target named is T1, Androgen receptor (Homo sapiens, UniProt P10275).
T1 sequence (P10275 whole entry): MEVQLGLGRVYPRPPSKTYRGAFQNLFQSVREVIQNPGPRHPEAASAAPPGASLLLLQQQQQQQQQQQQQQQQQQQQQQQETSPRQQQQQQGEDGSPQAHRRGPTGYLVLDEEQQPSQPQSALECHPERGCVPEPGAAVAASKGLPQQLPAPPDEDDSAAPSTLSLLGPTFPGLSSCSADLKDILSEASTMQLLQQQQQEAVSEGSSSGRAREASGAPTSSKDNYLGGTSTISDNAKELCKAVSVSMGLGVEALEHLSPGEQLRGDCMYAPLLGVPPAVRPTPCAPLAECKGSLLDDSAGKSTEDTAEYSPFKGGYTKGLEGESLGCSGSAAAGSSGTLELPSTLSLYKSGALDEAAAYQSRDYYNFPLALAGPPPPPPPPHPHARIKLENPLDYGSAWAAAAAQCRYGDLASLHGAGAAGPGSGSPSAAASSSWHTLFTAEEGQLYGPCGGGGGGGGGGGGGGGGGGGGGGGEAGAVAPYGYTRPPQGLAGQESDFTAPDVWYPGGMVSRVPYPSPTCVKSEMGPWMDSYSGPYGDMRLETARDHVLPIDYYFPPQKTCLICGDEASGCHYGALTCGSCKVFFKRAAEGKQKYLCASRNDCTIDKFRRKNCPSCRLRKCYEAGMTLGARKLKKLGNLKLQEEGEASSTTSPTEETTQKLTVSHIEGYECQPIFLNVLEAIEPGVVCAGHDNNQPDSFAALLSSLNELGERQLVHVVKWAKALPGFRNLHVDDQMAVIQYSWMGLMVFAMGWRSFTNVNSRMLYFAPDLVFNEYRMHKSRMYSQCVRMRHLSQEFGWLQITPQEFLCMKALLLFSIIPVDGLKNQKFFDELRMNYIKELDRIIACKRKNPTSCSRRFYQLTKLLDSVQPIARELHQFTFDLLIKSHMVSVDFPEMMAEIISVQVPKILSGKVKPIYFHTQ

Test [3] deals with Androgen receptor (Homo sapiens), P10275 [T878A]. The test is described as follows: Antagonist activity at human recombinant androgen receptor T877A mutant assessed as inhibition of prostate specific antigen production in human LNCaP cells by ELISA. It counts as functional, cell-based. On the technique in general: ELISA stands for enzyme-linked immunosorbent assay.
The target of test [4] is T2, Androgen receptor (Homo sapiens) (UniProt P10275).
T2 sequence (whole entry): T1 sequence (P10275 whole entry)
Conditions: 30 uM.
Description: Displacement of [3H]testosterone from wild type human androgen receptor at 30 uM

For another test, the system named is LNCaP. The experiment in a line: Antiproliferative activity against human LNCaP cells. It counts as functional, cell-based.
Test [5] concerns the target T2, Androgen receptor (Homo sapiens). The test is described as follows: Displacement of [3H]testosterone from wild type human androgen receptor at 3 uM.
Test [6] shares this target. The test is described as follows: Antagonist activity at wild type human recombinant androgen receptor assessed as inhibition of testosterone-induced growth of mouse androgen dependent SC3 cells at 1 uM by WST-1 method. It counts as functional, cell-based. Conditions: SC-3. A general note: Formazan colour is commonly taken as a measure of viable cells.

Activity calls are given as the source filed them. The rule behind the calls is not given here.

Sequence of Androgen receptor (Homo sapiens, UniProt P10275, T878A) (P10275 whole entry T878A): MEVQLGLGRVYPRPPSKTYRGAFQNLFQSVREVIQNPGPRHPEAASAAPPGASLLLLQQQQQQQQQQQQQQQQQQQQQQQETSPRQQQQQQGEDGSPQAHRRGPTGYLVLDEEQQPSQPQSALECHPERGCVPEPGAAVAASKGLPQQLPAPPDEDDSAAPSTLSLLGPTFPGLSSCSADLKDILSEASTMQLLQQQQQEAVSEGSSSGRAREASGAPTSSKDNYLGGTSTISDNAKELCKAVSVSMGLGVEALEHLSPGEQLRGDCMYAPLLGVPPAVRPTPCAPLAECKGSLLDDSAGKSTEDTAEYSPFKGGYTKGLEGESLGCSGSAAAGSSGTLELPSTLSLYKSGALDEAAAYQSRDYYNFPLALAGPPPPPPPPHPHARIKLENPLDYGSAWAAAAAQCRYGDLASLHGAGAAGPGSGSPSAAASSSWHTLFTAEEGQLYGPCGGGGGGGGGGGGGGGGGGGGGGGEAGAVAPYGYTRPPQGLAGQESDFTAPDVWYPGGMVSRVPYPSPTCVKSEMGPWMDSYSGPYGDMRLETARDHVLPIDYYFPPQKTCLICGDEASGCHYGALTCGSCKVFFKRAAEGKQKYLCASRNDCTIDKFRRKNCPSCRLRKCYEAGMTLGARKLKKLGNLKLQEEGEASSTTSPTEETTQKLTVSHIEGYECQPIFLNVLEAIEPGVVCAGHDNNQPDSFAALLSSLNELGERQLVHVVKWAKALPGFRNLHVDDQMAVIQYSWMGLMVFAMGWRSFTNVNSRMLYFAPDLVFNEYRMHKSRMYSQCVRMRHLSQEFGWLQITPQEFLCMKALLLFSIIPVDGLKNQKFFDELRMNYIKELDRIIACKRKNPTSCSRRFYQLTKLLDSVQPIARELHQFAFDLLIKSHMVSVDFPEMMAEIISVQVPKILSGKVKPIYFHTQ
Sequence of Androgen receptor (Homo sapiens), P10275 [T878A] (P10275 whole entry T878A): as above

`Cn1cc(N(Cc2ccccc2)c2ccc([N+](=O)[O-])cc2)cc1C(=O)N1CCCCC1`: the Ki turned out to be 27 nM at Androgen receptor [1] and 110 nM at Androgen receptor [2].
Compound `CCN(c1ccc([N+](=O)[O-])cc1)c1cc(C(=O)N2CCCC2)n(C)c1` returned a Ki at Androgen receptor [2] of 2000 nM.
In turn, `O=C(c1ccc(N(Cc2ccccc2)c2ccc([N+](=O)[O-])cc2)cc1)N1CCCC1` had a Ki at Androgen receptor [2] of 340 nM.
Same read-out and setting: for `Cn1cc(N(Cc2ccccc2)c2ccc([N+](=O)[O-])cc2)cc1C(N)=O` the value was 220 nM.
For `CC(C)N(c1ccc([N+](=O)[O-])cc1)c1cc(C(=O)N2CCCC2)n(C)c1`, the Ki on Androgen receptor [2] amounted to 3400 nM.
For the compound `COC(=O)c1ccc(N(Cc2ccccc2)c2cc(C(=O)N3CCCC3)n(C)c2)cc1`, the Ki on Androgen receptor [1] and at Androgen receptor [2] was 180 nM each time. Further, the result in test [3] was inactive.
As to `Cn1cc(Nc2ccc([N+](=O)[O-])cc2)cc1C(=O)N1CCCC1`, at Androgen receptor [2], the inhibition constant (Ki) came out at 4900 nM.
With `Cc1cc(C)cc(N(CC2CCCCC2)c2cc(C(=O)N3CCCC3)n(C)c2)c1`, the Ki on Androgen receptor [2] was 490 nM.
As to `Cn1cc(N(Cc2ccccc2)c2ccc(C(F)(F)F)cc2)cc1C(=O)N1CCCC1`, the results for the Ki at Androgen receptor [1] and on Androgen receptor [2] were 36 nM and 270 nM, respectively.
`Cc1cc(C)cc(N(Cc2ccc(CO)cc2)c2cc(C(=O)N3CCCC3)n(C)c2)c1` showed a Ki at Androgen receptor [2] of 2200 nM.
On to `Cn1cc(N(Cc2ccccc2)c2ccc([N+](=O)[O-])cc2)cc1CO`, for which, on Androgen receptor [2], the Ki was 170 nM.
Take `CCOC(=O)c1cc(N(Cc2ccccc2)c2ccc([N+](=O)[O-])cc2)cn1C`: the values for the Ki on Androgen receptor [1] and on Androgen receptor [2] were 7 nM and 180 nM, respectively.
Compound `Cc1cc(C)cc(N(Cc2ccc(O)cc2)c2cc(C(=O)N3CCCC3)n(C)c2)c1` yielded a Ki at Androgen receptor [2] of 690 nM.
The compound `CN(c1ccc([N+](=O)[O-])cc1)c1cc(C(=O)N2CCCC2)n(C)c1` displayed a Ki at Androgen receptor [2] of 3600 nM.
For `Cc1cc(C)cc(N(C)c2cc(C(=O)N3CCCC3)n(C)c2)c1`, the Ki on Androgen receptor [2] turned out to be 6100 nM.
On to `Cn1cc(N(Cc2ccccc2)c2ccc([N+](=O)[O-])c(C(F)(F)F)c2)cc1C(=O)N1CCCC1`, for which the Ki on Androgen receptor [1] came to 49 nM. The inhibition in test [4] was determined as 52%.
Turning to `Cn1cc(N(Cc2ccc(O)cc2)c2ccc([N+](=O)[O-])cc2)cc1C(=O)N1CCCC1`, the Ki is 330 nM on Androgen receptor [1] and 730 nM at Androgen receptor [2].
On Androgen receptor [2], `Cc1cc(C)cc(Nc2cc(C(=O)N3CCCC3)n(C)c2)c1` came in with a Ki of 3100 nM.
On to `Cn1cc(N(Cc2ccccc2)c2ccc([N+](=O)[O-])cc2)cc1C(=O)N1CCCC1`, for which the values for the Ki on Androgen receptor [1] and at Androgen receptor [2] were 5 nM and 110 nM, respectively. For the same compound, in the test with LNCaP, the outcome was Active.
Regarding `Cn1cc(N(Cc2ccc(CO)cc2)c2ccc([N+](=O)[O-])cc2)cc1C(=O)N1CCCC1`, the Ki was determined as 1400 nM on Androgen receptor [1] and 1800 nM on Androgen receptor [2].
With `CC(=O)c1ccc(N(Cc2ccccc2)c2cc(C(=O)N3CCCC3)n(C)c2)cc1`, the Ki at Androgen receptor [1] is 130 nM; on Androgen receptor [2], 140 nM. Moreover, the outcome in test [3] was inactive.
As for `Cc1ccc(CN(c2ccc([N+](=O)[O-])cc2)c2cc(C(=O)N3CCCC3)n(C)c2)cc1`, the Ki at Androgen receptor [1] is 130 nM; on Androgen receptor [2], 810 nM.
On Androgen receptor [2], `CCN(c1cc(C)cc(C)c1)c1cc(C(=O)N2CCCC2)n(C)c1` displayed a Ki of 2700 nM.
As for `Cn1cc(N(Cc2ccccc2)c2ccc([N+](=O)[O-])cc2)cc1C(=O)O`, the Ki on Androgen receptor [1] worked out at 3 nM; on Androgen receptor [2] it was 75 nM.
The compound `Cc1cc(C)cc(N(c2cc(C(=O)N3CCCC3)n(C)c2)C(C)C)c1` yielded a Ki at Androgen receptor [2] of 2700 nM.
Consider `C[C@](O)(CS(=O)(=O)c1ccc(F)cc1)C(=O)Nc1ccc(C#N)c(C(F)(F)F)c1`, for which the outcome with LNCaP was Active.
In test [5], `Cc1cc(C)cc(N(Cc2ccccc2)c2cc(C(=O)N3CCCC3)n(C)c2)c1` gave an inhibition of 20%. This compound yielded a Ki at Androgen receptor [2] of 350 nM.
The compound `Cn1cc(N(CC2CCCCC2)c2ccc([N+](=O)[O-])cc2)cc1C(=O)N1CCCC1` displayed a Ki on Androgen receptor [2] of 520 nM.
As to `Cn1cc(N(Cc2ccc(F)cc2)c2ccc([N+](=O)[O-])cc2)cc1C(=O)N1CCCC1`, the Ki on Androgen receptor [1] amounted to 140 nM; on Androgen receptor [2], 800 nM.
As to `Cn1cc(N(Cc2ccccc2)c2ccccc2[N+](=O)[O-])cc1C(=O)N1CCCC1`, at Androgen receptor [2], affinity was put at a Ki of 1300 nM. Also, the inhibition in test [6] was determined as 27%.
Take `CC(C)(O)C(=O)Nc1ccc([N+](=O)[O-])c(C(F)(F)F)c1`: the outcome in the test on LNCaP was inactive.
For `Cn1cc(N(Cc2ccccc2)c2ccc([N+](=O)[O-])cc2)cc1C(=O)N1CCc2ccccc21`, at Androgen receptor [1], the Ki was found to be 9 nM. The compound also returned an inhibition in test [5] of 25%.
For the compound `Cn1cc(N(Cc2ccccc2)c2ccc(C#N)cc2)cc1C(=O)N1CCCC1`, the Ki came to 6 nM at Androgen receptor [1] and 130 nM on Androgen receptor [2].
As for `CCN(CC)C(=O)c1cc(N(Cc2ccccc2)c2ccc([N+](=O)[O-])cc2)cn1C`, the Ki was determined as 3 nM on Androgen receptor [1] and 100 nM on Androgen receptor [2].
On to `O=C(c1cccc(N(Cc2ccccc2)c2ccc([N+](=O)[O-])cc2)c1)N1CCCC1`, for which, on Androgen receptor [2], affinity was put at a Ki of 370 nM.

As usually defined, the Ki is a dissociation constant, usually derived from enzyme kinetics or from competition with a known ligand. As a reminder, the inhibition is the share of the control response that was lost under treatment.

These data come from ChEMBL document CHEMBL1155056, “4-(Anilino)pyrrole-2-carboxamides: Novel non-steroidal/non-anilide type androgen antagonists effective upon human prostate tumor LNCaP cells with mutated nuclear androgen receptor” (Bioorg Med Chem, 2008).
